Literature values in patent US11554095B1, “Mitomycin-C bladder instillation syringe kit” (Edge Pharma, LLC, priority 2019, dated 2023).

What was measured:
[1] = urine

CO[C@@]12[C@H](COC(N)=O)C3=C(C(=O)C(C)=C(N)C3=O)N1C[C@@H]1N[C@@H]12 [MMC, Mitomycin-C]
decrease in MMC concentrations ([1]; pH 5, after 2 hours): 44%
loss of MMC ([1]; pH 7, after 2 hours): less than 4%
pH of solution in water (5 mg/mL solution in water): 6.0-7.5
pH of saturated solution (saturated solution): 5.0-9.0
